Data published in PubChem BioAssay (NCI).
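Cultured in 96-well plates, cells were exposed to test compound for 48 hours across five concentrations. At the GI50, growth is halved. At the TGI there is no net growth.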

Columns and labels:
Assay in all cases: NCI anticancer screen, dose series, 48 h
[1] = tested on: LOX IMVI melanoma
[2] = tested on: SK-MEL-28 melanoma
[3] = tested on: OVCAR-8 ovarian
[4] = tested on: EKVX NSCLC
[5] = tested on: SW-620 colon
[6] = tested on: TK-10 renal
[7] = tested on: HCT-116 colon
[8] = tested on: HCT-15 colon
[9] = tested on: M14 melanoma
[10] = tested on: ACHN renal
[11] = tested on: SF-539 CNS
[12] = tested on: BT-549 breast
[13] = tested on: MDA-MB-435
[14] = tested on: NCI-H23 lung
[15] = tested on: SF-268 CNS
[16] = tested on: HCC-2998 colon
[17] = tested on: NCI-H460 lung
[18] = tested on: HOP-92 NSCLC
[19] = tested on: CCRF-CEM leukemia
[20] = tested on: UO-31 renal
[21] = tested on: SN12C renal
[22] = tested on: HS 578T breast
[23] = tested on: T-47D breast
[24] = tested on: HL-60(TB) leukemia
[25] = tested on: K-562 leukemia
[26] = tested on: SF-295 CNS
[27] = tested on: DU-145 prostate
[28] = tested on: 786-0 renal
[29] = tested on: CAKI-1 renal
[30] = tested on: OVCAR-4 ovarian
[31] = tested on: HT29 colon
[32] = tested on: SNB-19 CNS
[33] = tested on: COLO 205 colon
[34] = tested on: RXF 393 renal
[35] = tested on: IGROV1 ovarian
[36] = tested on: RPMI-8226 leukemia
[37] = tested on: SNB-75 CNS
[38] = tested on: SK-MEL-5 melanoma
[39] = tested on: PC-3 prostate
[40] = tested on: A498 renal
[41] = tested on: KM12 colon
[42] = tested on: UACC-62 melanoma
[43] = tested on: MDA-MB-231 breast
[44] = tested on: SK-OV-3 ovarian
[45] = tested on: UACC-257 melanoma
[46] = tested on: MALME-3M melanoma
[47] = tested on: MCF7 breast
[48] = tested on: MOLT-4 leukemia
[49] = tested on: U251 CNS
[50] = tested on: OVCAR-5 ovarian
[51] = tested on: SK-MEL-2 melanoma
[52] = tested on: NCI-H226 lung
[53] = tested on: NCI-H522 lung
[54] = tested on: SR leukemia
[55] = tested on: OVCAR-3 ovarian
[56] = tested on: A549 NSCLC
[57] = tested on: HOP-62 NSCLC
[58] = tested on: NCI/ADR-RES ovarian

CC(C)[C@@]12C[C@@H](OC(=O)C3CO3)[C@@](C)(O1)[C@@H]1CC[C@@H](C)[C@H]1[C@@H]2OC(=O)/C=C/c1ccccc1 (stereo partly specified)
GI50 [1]: 17 µM
TGI [1]: 36.7 µM
GI50 [2]: 18.4 µM
TGI [2]: 37.9 µM
GI50 [3]: 5.33 µM
TGI [3]: 60.3 µM
GI50 [4]: 18.2 µM
TGI [4]: 50.9 µM
GI50 [5]: 18.5 µM
TGI [5]: 39.3 µM
GI50 [6]: 29.6 µM
TGI [6]: 65.8 µM
GI50 [7]: 23.8 µM
TGI [7]: > 100 µM
GI50 [8]: 21.1 µM
TGI [8]: 60.6 µM
GI50 [9]: 24.4 µM
TGI [9]: 88.5 µM
GI50 [10]: 2.34 µM
TGI [10]: 7.79 µM
GI50 [11]: 16.4 µM
TGI [11]: 31.4 µM
GI50 [12]: 11.3 µM
TGI [12]: 27.8 µM
GI50 [13]: 18.4 µM
TGI [13]: 38.3 µM
GI50 [14]: 17.8 µM
TGI [14]: 53.8 µM
GI50 [15]: 12.1 µM
TGI [15]: 40.2 µM
GI50 [16]: 18.7 µM
TGI [16]: 35.8 µM
GI50 [17]: 17.2 µM
TGI [17]: 34.2 µM
GI50 [18]: 12.4 µM
TGI [18]: 27.7 µM
GI50 [19]: 29 µM
TGI [19]: > 100 µM
GI50 [20]: 1.76 µM
TGI [20]: 5.57 µM
GI50 [21]: 11.9 µM
TGI [21]: 32.5 µM
GI50 [22]: 0.354 µM
TGI [22]: 3.11 µM
GI50 [23]: 18.8 µM
TGI [23]: > 100 µM
GI50 [24]: 22.7 µM
TGI [24]: 68.3 µM
GI50 [25]: 33.2 µM
TGI [25]: > 100 µM
GI50 [26]: 16.9 µM
TGI [26]: 32.2 µM
GI50 [27]: 26.4 µM
TGI [27]: 72.9 µM
GI50 [28]: 14 µM
TGI [28]: 29.5 µM
GI50 [29]: 13.1 µM
TGI [29]: 54.8 µM
GI50 [30]: 13.2 µM
TGI [30]: 26.6 µM
GI50 [31]: 33.6 µM
TGI [31]: > 100 µM
GI50 [32]: 16.6 µM
TGI [32]: 33.4 µM
GI50 [33]: 27.8 µM
TGI [33]: > 100 µM
GI50 [34]: 7.86 µM
TGI [34]: 22.4 µM
GI50 [35]: 24.3 µM
TGI [35]: 87.2 µM
GI50 [36]: 20.4 µM
TGI [36]: 55.2 µM
GI50 [37]: 10.8 µM
TGI [37]: 30.9 µM
GI50 [38]: 16.5 µM
TGI [38]: 30.2 µM
GI50 [39]: 17.4 µM
TGI [39]: 61 µM
GI50 [40]: 2.05 µM
TGI [40]: 4.91 µM
GI50 [41]: 18.7 µM
TGI [41]: 38.1 µM
GI50 [42]: 14.9 µM
TGI [42]: 34.4 µM
GI50 [43]: 13.3 µM
TGI [43]: 31.2 µM
GI50 [44]: 18.6 µM
TGI [44]: 46.8 µM
GI50 [45]: 19.2 µM
TGI [45]: 39.4 µM
GI50 [46]: 13 µM
TGI [46]: 27.4 µM
GI50 [47]: 19.8 µM
TGI [47]: 83.3 µM
GI50 [48]: 24.7 µM
TGI [48]: > 100 µM
GI50 [49]: 18.7 µM
TGI [49]: 44.3 µM
GI50 [50]: 19.3 µM
TGI [50]: 47.9 µM
GI50 [51]: 19.1 µM
TGI [51]: 42.8 µM
GI50 [52]: 13.5 µM
TGI [52]: 29.3 µM
GI50 [53]: 17.4 µM
TGI [53]: 37.3 µM
GI50 [54]: 29.8 µM
TGI [54]: > 100 µM
GI50 [55]: 15.8 µM
TGI [55]: 30 µM
GI50 [56]: 20.4 µM
TGI [56]: 49.5 µM
GI50 [57]: 21.2 µM
TGI [57]: > 100 µM
GI50 [58]: 10.8 µM
TGI [58]: 37.4 µM
